In patent publication US12172995B2, “Substituted indole and indazole compounds” (BRISTOL-MYERS SQUIBB COMPANY, priority 2018, dated 2024):

Assays:
Format in all cases: cell-based
[1] = biological target: T1, human TLR9 (Homo sapiens, UniProt Q9NR96); assay: TLR9 inhibition reporter assay (HEK-Blue SEAP); conditions: HEK-Blue cells overexpressing human TLR9, stimulated with ODN2006 5 nM, 22 hour incubation
T1 construct: host or cells: HEK-Blue cells
T1 sequence (Q9NR96 26-1032): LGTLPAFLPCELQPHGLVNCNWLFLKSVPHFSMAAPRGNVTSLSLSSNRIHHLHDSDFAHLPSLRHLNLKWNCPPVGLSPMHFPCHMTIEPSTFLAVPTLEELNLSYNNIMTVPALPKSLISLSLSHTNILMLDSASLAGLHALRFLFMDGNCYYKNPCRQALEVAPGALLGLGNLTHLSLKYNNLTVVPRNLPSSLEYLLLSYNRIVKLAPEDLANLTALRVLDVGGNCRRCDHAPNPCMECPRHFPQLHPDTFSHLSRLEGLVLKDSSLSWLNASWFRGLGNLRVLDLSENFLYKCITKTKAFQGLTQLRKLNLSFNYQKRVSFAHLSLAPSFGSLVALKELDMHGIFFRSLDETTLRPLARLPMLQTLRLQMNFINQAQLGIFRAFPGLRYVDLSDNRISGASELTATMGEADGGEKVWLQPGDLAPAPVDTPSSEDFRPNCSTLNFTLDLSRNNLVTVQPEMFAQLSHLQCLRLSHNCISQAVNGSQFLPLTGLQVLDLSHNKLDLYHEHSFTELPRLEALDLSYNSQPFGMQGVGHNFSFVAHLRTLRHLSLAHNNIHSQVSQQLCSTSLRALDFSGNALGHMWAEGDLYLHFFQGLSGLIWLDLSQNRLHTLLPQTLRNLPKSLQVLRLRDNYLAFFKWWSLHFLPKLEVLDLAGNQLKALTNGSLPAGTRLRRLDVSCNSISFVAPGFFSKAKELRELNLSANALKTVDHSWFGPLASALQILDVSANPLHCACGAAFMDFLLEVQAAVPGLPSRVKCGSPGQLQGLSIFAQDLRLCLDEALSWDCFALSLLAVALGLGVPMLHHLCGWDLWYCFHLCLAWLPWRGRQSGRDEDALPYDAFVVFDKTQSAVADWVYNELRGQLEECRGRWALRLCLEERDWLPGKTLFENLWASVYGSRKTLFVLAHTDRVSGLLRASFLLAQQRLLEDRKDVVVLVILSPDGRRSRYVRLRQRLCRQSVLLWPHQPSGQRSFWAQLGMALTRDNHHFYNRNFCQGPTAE
Summary of the method: (§1)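 HEK-Blue cells overexpressing human TLR7, TLR8 or TLR9 with an NF-κB/AP-1-driven SEAP reporter were pre-treated 30 min at room temperature with compound (0.05 nM to 50 μM), then stimulated with gardiquimod 7.5 μM (TLR7), R848 15.9 μM (TLR8) or ODN2006 5 nM (TLR9). SEAP measured after 22 h at 37° C; inhibition normalized between agonist-plus-DMSO and reference-inhibitor wells.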

[2] = biological target: T2, human TLR7 (Homo sapiens, UniProt Q9NYK1); assay: TLR7 inhibition reporter assay (HEK-Blue SEAP); conditions: HEK-Blue cells overexpressing human TLR7, stimulated with gardiquimod 7.5 μM, 22 hour incubation
T2 construct: host or cells: HEK-Blue cells
T2 sequence (Q9NYK1 27-1049): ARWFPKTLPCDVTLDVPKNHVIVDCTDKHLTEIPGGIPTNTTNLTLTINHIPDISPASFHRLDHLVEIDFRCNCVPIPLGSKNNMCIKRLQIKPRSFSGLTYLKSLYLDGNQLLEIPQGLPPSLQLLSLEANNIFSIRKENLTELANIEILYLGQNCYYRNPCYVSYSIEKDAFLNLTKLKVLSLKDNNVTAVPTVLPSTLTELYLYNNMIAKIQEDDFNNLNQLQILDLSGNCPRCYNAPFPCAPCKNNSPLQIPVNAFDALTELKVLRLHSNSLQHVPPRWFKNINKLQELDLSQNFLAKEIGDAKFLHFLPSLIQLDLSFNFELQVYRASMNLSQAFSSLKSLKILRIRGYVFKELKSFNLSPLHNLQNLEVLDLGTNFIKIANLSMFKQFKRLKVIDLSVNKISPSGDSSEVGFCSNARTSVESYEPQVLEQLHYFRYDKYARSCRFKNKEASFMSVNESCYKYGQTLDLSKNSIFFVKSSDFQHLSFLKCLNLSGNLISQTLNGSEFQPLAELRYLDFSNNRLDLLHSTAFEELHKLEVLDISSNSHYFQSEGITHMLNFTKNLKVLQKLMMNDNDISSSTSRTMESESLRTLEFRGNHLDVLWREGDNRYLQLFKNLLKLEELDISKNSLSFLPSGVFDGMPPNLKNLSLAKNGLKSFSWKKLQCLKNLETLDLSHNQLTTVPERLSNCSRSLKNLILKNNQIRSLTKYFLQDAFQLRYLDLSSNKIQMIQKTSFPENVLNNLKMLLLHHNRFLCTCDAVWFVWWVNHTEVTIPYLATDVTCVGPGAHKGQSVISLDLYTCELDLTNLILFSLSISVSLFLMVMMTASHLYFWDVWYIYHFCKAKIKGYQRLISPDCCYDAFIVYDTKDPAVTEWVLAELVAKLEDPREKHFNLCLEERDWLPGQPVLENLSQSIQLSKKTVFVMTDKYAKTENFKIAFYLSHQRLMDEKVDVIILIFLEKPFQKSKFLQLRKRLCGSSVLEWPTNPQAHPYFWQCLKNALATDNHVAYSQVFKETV
Summary of the method: as §1

[3] = biological target: T3, human TLR8 (Homo sapiens, UniProt Q9NR97); assay: TLR8 inhibition reporter assay (HEK-Blue SEAP); conditions: HEK-Blue cells overexpressing human TLR8, stimulated with R848 15.9 μM, 22 hour incubation
T3 construct: host or cells: HEK-Blue cells
T3 sequence (Q9NR97 27-1041): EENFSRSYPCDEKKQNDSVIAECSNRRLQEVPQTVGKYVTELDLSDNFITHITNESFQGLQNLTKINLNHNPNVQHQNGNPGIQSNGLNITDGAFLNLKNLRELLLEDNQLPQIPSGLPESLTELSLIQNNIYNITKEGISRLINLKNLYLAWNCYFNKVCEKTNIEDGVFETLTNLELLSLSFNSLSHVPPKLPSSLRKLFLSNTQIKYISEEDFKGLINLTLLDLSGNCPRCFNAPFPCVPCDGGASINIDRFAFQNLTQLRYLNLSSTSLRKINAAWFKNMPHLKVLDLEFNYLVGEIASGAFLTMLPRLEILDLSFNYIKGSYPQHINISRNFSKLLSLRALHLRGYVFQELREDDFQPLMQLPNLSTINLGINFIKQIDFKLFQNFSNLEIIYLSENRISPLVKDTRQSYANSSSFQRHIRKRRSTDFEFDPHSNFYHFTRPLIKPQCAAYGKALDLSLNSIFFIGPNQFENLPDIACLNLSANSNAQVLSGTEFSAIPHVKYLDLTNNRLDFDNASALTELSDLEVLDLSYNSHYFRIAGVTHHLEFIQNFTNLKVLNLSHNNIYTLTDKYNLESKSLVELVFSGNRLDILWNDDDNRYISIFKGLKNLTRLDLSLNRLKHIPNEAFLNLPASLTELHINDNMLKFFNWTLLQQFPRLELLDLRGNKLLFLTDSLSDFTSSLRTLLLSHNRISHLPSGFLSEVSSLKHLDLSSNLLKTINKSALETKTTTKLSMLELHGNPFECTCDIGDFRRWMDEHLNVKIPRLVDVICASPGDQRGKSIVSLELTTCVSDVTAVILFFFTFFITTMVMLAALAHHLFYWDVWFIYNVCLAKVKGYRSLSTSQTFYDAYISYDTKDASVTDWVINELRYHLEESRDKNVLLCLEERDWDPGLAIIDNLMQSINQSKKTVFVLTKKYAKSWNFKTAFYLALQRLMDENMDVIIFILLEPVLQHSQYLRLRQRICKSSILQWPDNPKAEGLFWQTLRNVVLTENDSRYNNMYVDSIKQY
Summary of the method: as §1

| Compound | IC50 [1] | IC50 [2] | IC50 [3] |
| --- | --- | --- | --- |
| Cc1cc2c(C3CCNCC3)n[nH]c2cc1-c1cc(C)c2ncnn2c1C [Example 83, 5,8-dimethyl-6-(5-methyl-3-(piperidin-4-yl)-1H-indazol-6-yl)-[1,2,4]triazolo[1,5-a]pyridine] | 8010 nM | 45 nM | 5.5 nM |
| CCc1cc2c(C3CCN(C(=O)CN(C)C)CC3)n[nH]c2cc1-c1cc(C)c2ncnn2c1 [Example 87, 2-(dimethylamino)-1-(4-(5-ethyl-6-(8-methyl-[1,2,4]triazolo[1,5-a]pyridin-6-yl)-1H-indazol-3-yl)piperidin-1-yl)ethan-1-one] | 11600 nM | 6.3 nM | 0.6 nM |
| CCc1cc2c(C3CCN(C4CCOCC4)CC3)n[nH]c2cc1-c1cc(C)c2ncnn2c1 [Example 88, 6-(5-ethyl-3-(1-(tetrahydro-2H-pyran-4-yl)piperidin-4-yl)-1H-indazol-6-yl)-8-methyl-[1,2,4]triazolo[1,5-a]pyridine] | 14200 nM | 3.7 nM | 0.2 nM |
| CCc1cc2c(C3CCN(C(C)C)CC3)n[nH]c2cc1-c1cc(C)c2ncnn2c1 [Example 90, 6-(5-ethyl-3-(1-isopropylpiperidin-4-yl)-1H-indazol-6-yl)-8-methyl-[1,2,4]triazolo[1,5-a]pyridine] | 7940 nM | 2.6 nM | 0.1 nM |
| CCc1cc2c(C3CCN(CC(=O)N(C)C)CC3)n[nH]c2cc1-c1cc(C)c2ncnn2c1 [Example 91, 2-(4-(5-ethyl-6-(8-methyl-[1,2,4]triazolo[1,5-a]pyridin-6-yl)-1H-indazol-3-yl)piperidin-1-yl)-N,N-dimethylacetamide] | 14500 nM | 3.7 nM | 0.4 nM |
| CCc1cc2c(C3CCN(CC(N)=O)CC3)n[nH]c2cc1-c1cc(C)c2ncnn2c1 [Example 92, 2-(4-(5-ethyl-6-(8-methyl-[1,2,4]triazolo[1,5-a]pyridin-6-yl)-1H-indazol-3-yl)piperidin-1-yl)acetamide] | 17200 nM | 2.7 nM | 0.2 nM |
| CCc1cc2c(C3CCC(NCC(=O)N(C)C)CC3)n[nH]c2cc1-c1cc(C)c2ncnn2c1 (stereo not drawn) [Example 95, 2-((4-(5-ethyl-6-(8-methyl-[1,2,4]triazolo[1,5-a]pyridin-6-yl)-1H-indazol-3-yl)cyclohexyl)amino)-N,N-dimethylacetamide] | 10800 nM | 5.4 nM | 0.2 nM |
| CCc1cc2c(C3CCC(NCC(=O)N(C)C)CC3)n[nH]c2cc1-c1cc(C)c2ncnn2c1 (stereo not drawn) [Example 96, 2-((4-(5-ethyl-6-(8-methyl-[1,2,4]triazolo[1,5-a]pyridin-6-yl)-1H-indazol-3-yl)cyclohexyl)amino)-N,N-dimethylacetamide] | 16000 nM | 3 nM | 0.2 nM |

Compounds with a lower IC50 [1], results first:

| IC50 [1] | IC50 [2] | IC50 [3] | Compound |
| --- | --- | --- | --- |
| 6050 nM | 10.3 nM | 53.8 nM | Cc1cc(-c2cc(C)c3ncnn3c2)cc2[nH]nc(C3CCN(C)CC3)c12 [Example 79, 8-methyl-6-(4-methyl-3-(1-methylpiperidin-4-yl)-1H-indazol-6-yl)-[1,2,4]triazolo[1,5-a]pyridine] |
| 2840 nM | 3.8 nM | 2.5 nM | Cc1cc(-c2cc(C)c3ncnn3c2)cc2[nH]nc(C3CCC(N(C)C)CC3)c12 (stereo not drawn) [Example 80, N,N-dimethyl-4-(4-methyl-6-(8-methyl-[1,2,4]triazolo[1,5-a]pyridin-6-yl)-1H-indazol-3-yl) cyclohexan-1-amine] |
| 1830 nM | 1.3 nM | 5.3 nM | Cc1cc(-c2cc(C)c3ncnn3c2)cc2[nH]nc(C3CCC(N(C)C)CC3)c12 (stereo not drawn) [Example 81, N,N-dimethyl-4-(4-methyl-6-(8-methyl-[1,2,4]triazolo[1,5-a]pyridin-6-yl)-1H-indazol-3-yl)cyclohexan-1-amine] |
| 2200 nM | 1.6 nM | 0.4 nM | CCc1cc2c(C3CCNCC3)n[nH]c2cc1-c1cc(C)c2ncnn2c1 [Example 82, 6-(5-ethyl-3-(piperidin-4-yl)-1H-indazol-6-yl)-8-methyl-[1,2,4]triazolo[1,5-a]pyridine] |
| 5610 nM | 33.4 nM | 15.7 nM | Cc1cc2c(C3CCNCC3)n[nH]c2cc1-c1cc(C#N)c2ncnn2c1 [Example 84, 6-(5-methyl-3-(piperidin-4-yl)-1H-indazol-6-yl)-[1,2,4]triazolo[1,5-a]pyridine-8-carbonitrile] |
| 3940 nM | 33 nM | 1.5 nM | Cc1cc2c(C3CCNCC3)n[nH]c2cc1-c1cc(-c2cncnc2)c2ncnn2c1 [Example 85, 6-(5-methyl-3-(piperidin-4-yl)-1H-indazol-6-yl)-8-(pyrimidin-5-yl)-[1,2,4]triazolo[1,5-a]pyridine] |
| 1290 nM | 5.8 nM | 21.8 nM | COc1cc(-c2cc(C)c3ncnn3c2)cc2[nH]nc(C3CCNCC3)c12 [Example 86, 6-(4-methoxy-3-(piperidin-4-yl)-1H-indazol-6-yl)-8-methyl-[1,2,4]triazolo[1,5-a]pyridine] |
